The text below walks through data of patent US9963496B2, “Stable glucagon analogues and use for treatment of hypoglycaemia” (Novo Nordisk A/S, priority 2014, dated 2018).

The target of one data set is T1, human glucagon receptor (Homo sapiens, UniProt P47871).
T1 construct: expressed in transfected cells; host or cells: BHK cells, clone BHK hGCGR A3*25; isolated membranes
Put plainly: Assay (I)(b): glucagon receptor activation, CRE luciferase reporter gene assay in BHK cells. The data set is classed as cell-based. The note with it: BHK cells expressing human glucagon receptor and CRE luciferase, 3 h incubation; read-out: EC50 hGlucagonR. A digest of the protocol:
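BHK570 cells stably expressing the human glucagon receptor and CRE-luciferase, 5×10 EE3 cells/well in DMEM with 2% ovalbumin and 0.2% Pluronic F-68. Compounds at final 1×10 EE-6 to 1×10 EE-13 M, 3 h at 37° C. Luminescence read; EC50 by four-parameter fit.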

The nature of the next data set: physchem. The note with it: pH 7.5. The data set is classed as physicochemical. A digest of the protocol: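 Peptide at 250 μM in 10 mM HEPES pH 7.5 with 1 μM Thioflavin T, incubated at 37° C with 960 rpm orbital shaking. ThT fluorescence (ex 444/em 485 nm) read every 20 min; lag-time (t0−2τ) and kapp (1/τ) from curve fit. Recovery is post-assay supernatant peptide by RP-HPLC as % of initial.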

Molecules are shown by their SMILES. *1 amine or outer side, *2 acyl side, *3 side chain or, on linkers, in order; H or OH if unused. Where a SMILES comes first, the peptide text is derived from it. Side-chain parts run from the residue outwards. [ ]: non-standard residue; d: D form. The star is where a group is joined. γGlu = O=C(O)[C@H](CCC(=O)[*:2])N[*:1]; Desaminohistidyl = O=C(CCc1c[nH]cn1)*; Aib = CC(C)(N)C(=O)O

T1 sequence (P47871 26-477): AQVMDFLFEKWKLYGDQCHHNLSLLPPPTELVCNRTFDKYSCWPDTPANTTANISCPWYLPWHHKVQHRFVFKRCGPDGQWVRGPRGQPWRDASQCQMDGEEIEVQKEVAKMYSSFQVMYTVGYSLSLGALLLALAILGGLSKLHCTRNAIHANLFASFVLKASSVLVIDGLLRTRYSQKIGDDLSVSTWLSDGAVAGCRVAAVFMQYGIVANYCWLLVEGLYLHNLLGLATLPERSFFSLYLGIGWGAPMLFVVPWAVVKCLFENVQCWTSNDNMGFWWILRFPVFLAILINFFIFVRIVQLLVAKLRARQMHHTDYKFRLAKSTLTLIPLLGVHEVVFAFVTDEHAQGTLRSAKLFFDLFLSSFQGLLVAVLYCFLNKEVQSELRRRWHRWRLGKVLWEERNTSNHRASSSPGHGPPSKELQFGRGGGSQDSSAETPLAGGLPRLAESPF

The EC50 is the midpoint of the concentration-response curve. As for `CC(=O)N[C@@H](CCC(=O)N[C@@H](CCC(=O)N[C@@H](CCC(=O)N[C@@H](CCC(=O)NCCCC[C@H](NC(=O)[C@@H](NC(=O)[C@H](Cc1ccccc1)NC(=O)[C@H](CCC(=O)O)NC(=O)[C@H](CCC(N)=O)NC(=O)[C@H](C)NC(=O)[C@H](CCCNC(=N)N)NC(=O)[C@H](CCCNC(=N)N)NC(=O)[C@H](CO)NC(=O)[C@H](CCC(=O)O)NC(=O)[C@H](CC(C)C)NC(=O)[C@H](Cc1ccc(O)cc1)NC(=O)[C@H](CCCCN)NC(=O)[C@H](CO)NC(=O)[C@H](Cc1ccc(O)cc1)NC(=O)[C@H](CC(=O)O)NC(=O)[C@H](CO)NC(=O)[C@@H](NC(=O)[C@H](Cc1ccccc1)NC(=O)[C@@H](NC(=O)CNC(=O)[C@H](Cc1c[nH]cn1)NC(=O)C(C)(C)NC(=O)CCc1c[nH]cn1)[C@@H](C)O)[C@@H](C)O)C(C)C)C(=O)N[C@@H](Cc1c[nH]c2ccccc12)C(=O)N[C@@H](CC(C)C)C(=O)N[C@@H](CC(C)C)C(=O)N[C@@H](CO)C(=O)N[C@H](C(=O)O)[C@@H](C)O)C(=O)O)C(=O)O)C(=O)O)C(=O)O` [Example 7, N^ϵ24-[(4S)-4-[[(4S)-4-[[(4S)-4-[[(4S)-4-acetamido-4-carboxybutanoyl]amino]-4-carboxybutanoyl]amino]-4-carboxybutanoyl]amino]-4-carboxybutanoyl]-[Imp1, Aib2, His3, Glu15, Glu21, Lys24, Leu27, Ser28]-Glucagon] (Desaminohistidyl-[Aib]HGTFTSDYSKYLESRRAQEFVK([γGlu-γGlu-γGlu-γGlu-Ac])WLLST-OH), the concentration giving a half-maximal response (EC50) at human glucagon receptor is 2 pM. Also, the recovery at 250 μM in “physchem” was 100%.

Regarding `CC(=O)N[C@@H](CCC(=O)N[C@@H](CCC(=O)N[C@@H](CCC(=O)N[C@@H](CCC(=O)NCCCC[C@H](NC(=O)[C@@H](NC(=O)[C@H](Cc1ccccc1)NC(=O)[C@H](CC(=O)O)NC(=O)[C@H](CCC(N)=O)NC(=O)[C@H](C)NC(=O)[C@H](CCCNC(=N)N)NC(=O)[C@H](CCCNC(=N)N)NC(=O)C(C)(C)NC(=O)[C@H](CC(=O)O)NC(=O)[C@H](CC(C)C)NC(=O)[C@H](Cc1ccc(O)cc1)NC(=O)[C@H](CCCCN)NC(=O)[C@H](CO)NC(=O)[C@H](Cc1ccc(O)cc1)NC(=O)[C@H](CC(=O)O)NC(=O)[C@H](CO)NC(=O)[C@@H](NC(=O)[C@H](Cc1ccccc1)NC(=O)[C@@H](NC(=O)CNC(=O)[C@H](Cc1c[nH]cn1)NC(=O)[C@H](CO)NC(=O)CCc1c[nH]cn1)[C@@H](C)O)[C@@H](C)O)C(C)C)C(=O)N[C@@H](Cc1c[nH]c2ccccc12)C(=O)N[C@@H](CC(C)C)C(=O)N[C@@H](CC(C)C)C(=O)N[C@@H](CO)C(=O)N[C@H](C(=O)O)[C@@H](C)O)C(=O)O)C(=O)O)C(=O)O)C(=O)O` [Example 21, N^ϵ24-[(4S)-4-[[(4S)-4-[[(4S)-4-[[(4S)-4-acetamido-4-carboxybutanoyl]amino]-4-carboxybutanoyl]amino]-4-carboxybutanoyl]amino]-4-carboxybutanoyl]-[Imp1, His3, Aib16, Lys24, Leu27, Ser28]-Glucagon] (Desaminohistidyl-SHGTFTSDYSKYLD[Aib]RRAQDFVK([γGlu-γGlu-γGlu-γGlu-Ac])WLLST-OH), the EC50 on human glucagon receptor is 2 pM. Moreover, in “physchem”, the recovery at 250 μM stood at 104%.

As to `CC(=O)N[C@@H](CCC(=O)N[C@@H](CCC(=O)N[C@@H](CCC(=O)N[C@@H](CCC(=O)NCCCC[C@H](NC(=O)[C@@H](NC(=O)[C@H](Cc1ccccc1)NC(=O)[C@H](CCC(=O)O)NC(=O)[C@H](CCC(N)=O)NC(=O)[C@H](C)NC(=O)[C@H](CCCNC(=N)N)NC(=O)[C@H](CCCNC(=N)N)NC(=O)[C@H](CO)NC(=O)[C@H](CCC(=O)O)NC(=O)[C@H](CC(C)C)NC(=O)[C@H](Cc1ccc(O)cc1)NC(=O)[C@H](CCCCN)NC(=O)[C@H](CO)NC(=O)[C@H](Cc1ccc(O)cc1)NC(=O)[C@H](CC(=O)O)NC(=O)[C@H](CO)NC(=O)[C@@H](NC(=O)[C@H](Cc1ccccc1)NC(=O)[C@@H](NC(=O)CNC(=O)[C@H](Cc1c[nH]cn1)NC(=O)[C@H](CO)NC(=O)CCc1c[nH]cn1)[C@@H](C)O)[C@@H](C)O)C(C)C)C(=O)N[C@@H](Cc1c[nH]c2ccccc12)C(=O)N[C@@H](CC(C)C)C(=O)N[C@@H](CC(C)C)C(=O)N[C@@H](CCC(=O)O)C(=O)N[C@H](C(=O)O)[C@@H](C)O)C(=O)O)C(=O)O)C(=O)O)C(=O)O` [Example 22, N^ϵ24-[(4S)-4-[[(4S)-4-[[(4S)-4-[[(4S)-4-acetamido-4-carboxybutanoyl]amino]-4-carboxybutanoyl]amino]-4-carboxybutanoyl]amino]-4-carboxybutanoyl]-[Imp1, His3, Glu15, Glu21, Lys24, Leu27, Glu28]-Glucagon] (Desaminohistidyl-SHGTFTSDYSKYLESRRAQEFVK([γGlu-γGlu-γGlu-γGlu-Ac])WLLET-OH), at human glucagon receptor, the EC50 is 17 pM. Moreover, the recovery at 250 μM in “physchem” turned out to be 100%.

For `CC(=O)N[C@@H](CCC(=O)N[C@@H](CCC(=O)N[C@@H](CCC(=O)N[C@@H](CCC(=O)NCCCC[C@H](NC(=O)[C@H](CCC(N)=O)NC(=O)[C@H](C)NC(=O)[C@H](CCCNC(=N)N)NC(=O)[C@H](CCCNC(=N)N)NC(=O)[C@H](CO)NC(=O)[C@H](CCC(=O)O)NC(=O)[C@H](CC(C)C)NC(=O)[C@H](Cc1ccc(O)cc1)NC(=O)[C@H](CCCCN)NC(=O)[C@H](CO)NC(=O)[C@H](Cc1ccc(O)cc1)NC(=O)[C@H](CC(=O)O)NC(=O)[C@H](CO)NC(=O)[C@@H](NC(=O)[C@H](Cc1ccccc1)NC(=O)[C@@H](NC(=O)CNC(=O)[C@H](Cc1c[nH]cn1)NC(=O)[C@H](CO)NC(=O)CCc1c[nH]cn1)[C@@H](C)O)[C@@H](C)O)C(=O)N[C@@H](Cc1ccccc1)C(=O)N[C@H](C(=O)N[C@@H](CCC(N)=O)C(=O)N[C@@H](Cc1c[nH]c2ccccc12)C(=O)N[C@@H](CC(C)C)C(=O)N[C@@H](CC(C)C)C(=O)N[C@@H](CO)C(=O)N[C@H](C(=O)O)[C@@H](C)O)C(C)C)C(=O)O)C(=O)O)C(=O)O)C(=O)O` [Example 13, Nϵ^21-[(4S)-4-[[(4S)-4-[[(4S)-4-[[(4S)-4-acetamido-4-carboxybutanoyl]amino]-4-carboxybutanoyl]amino]-4-carboxybutanoyl]amino]-4-carboxybutanoyl]-[Imp1, His3, Glu15, Lys21, Leu27, Ser28]-Glucagon] (Desaminohistidyl-SHGTFTSDYSKYLESRRAQK([γGlu-γGlu-γGlu-γGlu-Ac])FVQWLLST-OH), the EC50 on human glucagon receptor stood at 17 pM. In “physchem”, this compound gave a recovery at 250 μM of 39%.

In the case of `CC(=O)N[C@@H](CCC(=O)N[C@@H](CCC(=O)N[C@@H](CCC(=O)N[C@@H](CCC(=O)N[C@@H](CCC(=O)NCCCC[C@H](NC(=O)[C@@H](NC(=O)[C@H](Cc1ccccc1)NC(=O)[C@H](CCC(=O)O)NC(=O)[C@H](CCC(N)=O)NC(=O)[C@H](C)NC(=O)[C@H](CCCNC(=N)N)NC(=O)[C@H](CCCNC(=N)N)NC(=O)[C@H](CO)NC(=O)[C@H](CCC(=O)O)NC(=O)[C@H](CC(C)C)NC(=O)[C@H](Cc1ccc(O)cc1)NC(=O)[C@H](CCCCN)NC(=O)[C@H](CO)NC(=O)[C@H](Cc1ccc(O)cc1)NC(=O)[C@H](CC(=O)O)NC(=O)[C@H](CO)NC(=O)[C@@H](NC(=O)[C@H](Cc1ccccc1)NC(=O)[C@@H](NC(=O)CNC(=O)[C@H](Cc1c[nH]cn1)NC(=O)[C@H](CO)NC(=O)CCc1c[nH]cn1)[C@@H](C)O)[C@@H](C)O)C(C)C)C(=O)N[C@@H](Cc1c[nH]c2ccccc12)C(=O)N[C@@H](CC(C)C)C(=O)N[C@@H](CC(C)C)C(=O)N[C@@H](CO)C(=O)N[C@H](C(=O)O)[C@@H](C)O)C(=O)O)C(=O)O)C(=O)O)C(=O)O)C(=O)O` [Example 19, N^ϵ24-[(4S)-4-[[(4S)-4-[[(4S)-4-[[(4S)-4-[[(4S)-4-acetamido-4-carboxybutanoyl]amino]-4-carboxybutanoyl]amino]-4-carboxybutanoyl]amino]-4-carboxybutanoyl]amino]-4-carboxybutanoyl]-[Imp1, His3, Glu15, Glu21, Lys24, Leu27, Ser28]-Glucagon] (Desaminohistidyl-SHGTFTSDYSKYLESRRAQEFVK([γGlu-γGlu-γGlu-γGlu-γGlu-Ac])WLLST-OH), the EC50 at human glucagon receptor stood at 6 pM. Moreover, the recovery at 250 μM in the data set “physchem” is 104%.
